Test results taken from ChEMBL document CHEMBL4354870, “GSK2818713, a Novel Biphenylene Scaffold-Based Hepatitis C NS5A Replication Complex Inhibitor with Broad Genotype Coverage” (J Med Chem, 2020).
Each block holds one molecule with its values, some of them ahead of it.

Tests used:
[1] = Tmax in Han Wistar rat at 5 mg/kg, po by LC-MS/MS analysis; format: ADME, organism-based; conditions: in vivo
[2] = Cmax in CD1 mouse at 5 mg/kg, po by LC-MS/MS analysis; format: ADME, organism-based; design: dose 5 mg/kg, route oral; conditions: in vivo
[3] = Tmax in Beagle dog at 1 mg/kg, po by LC-MS/MS analysis; format: ADME, organism-based, Canis lupus familiaris; conditions: in vivo
[4] = AUC (0 to t) in Beagle dog at 1 mg/kg, iv by LC-MS/MS analysis; format: ADME, organism-based, Canis lupus familiaris; conditions: in vivo
[5] = AUC (0 to infinity) in Beagle dog at 1 mg/kg, iv by LC-MS/MS analysis; format: ADME, organism-based, Canis lupus familiaris; design: dose 1 mg/kg, route intravenous, time infinity; conditions: in vivo
[6] = AUC (0 to infinity) in Han Wistar rat at 5 mg/kg, po by LC-MS/MS analysis; format: ADME, organism-based; design: dose 5 mg/kg, time infinity, route oral; conditions: in vivo
[7] = Half life in CD1 mouse at 5 mg/kg, po by LC-MS/MS analysis; format: ADME, organism-based; conditions: in vivo
[8] = AUC (0 to t) in Han Wistar rat at 1 mg/kg, iv by LC-MS/MS analysis; format: ADME, organism-based; conditions: in vivo
[9] = Cmax in Han Wistar rat at 5 mg/kg, po by LC-MS/MS analysis; format: ADME, organism-based; design: dose 5 mg/kg, route oral; conditions: in vivo
[10] = Cmax in Beagle dog at 1 mg/kg, po by LC-MS/MS analysis; format: ADME, organism-based, Canis lupus familiaris; design: dose 1 mg/kg, route oral; conditions: in vivo
[11] = Half life in Han Wistar rat at 1 mg/kg, iv by LC-MS/MS analysis; format: ADME, organism-based; conditions: in vivo
[12] = Volume of distribution at steady state in Han Wistar rat at 1 mg/kg, iv by LC-MS/MS analysis; format: ADME, organism-based; conditions: in vivo, read-out: Vdss
[13] = AUC (0 to t) in CD1 mouse at 5 mg/kg, po by LC-MS/MS analysis; format: ADME, organism-based; conditions: in vivo
[14] = Oral bioavailability in Beagle dog at 1 mg/kg by LC-MS/MS analysis; format: ADME, organism-based, Canis lupus familiaris; conditions: in vivo
[15] = Clearance in Han Wistar rat at 1 mg/kg, iv by LC-MS/MS analysis; format: ADME, organism-based; conditions: in vivo
[16] = AUC (0 to infinity) in Han Wistar rat at 1 mg/kg, iv by LC-MS/MS analysis; format: ADME, organism-based; design: dose 1 mg/kg, time infinity, route intravenous; conditions: in vivo
[17] = AUC (0 to infinity) in CD1 mouse at 5 mg/kg, po by LC-MS/MS analysis; format: ADME, organism-based; design: dose 5 mg/kg, route oral, time infinity; conditions: in vivo
[18] = Clearance in Beagle dog at 1 mg/kg, iv by LC-MS/MS analysis; format: ADME, organism-based, Canis lupus familiaris; conditions: in vivo
[19] = Tmax in CD1 mouse at 5 mg/kg, po by LC-MS/MS analysis; format: ADME, organism-based; conditions: in vivo
[20] = Oral bioavailability in CD1 mouse at 5 mg/kg by LC-MS/MS analysis; format: ADME, organism-based; conditions: in vivo
[21] = AUC (0 to t) in Han Wistar rat at 5 mg/kg, po by LC-MS/MS analysis; format: ADME, organism-based; conditions: in vivo
[22] = Half life in CD1 mouse at 1 mg/kg, iv by LC-MS/MS analysis; format: ADME, organism-based; conditions: in vivo
[23] = AUC (0 to t) in Beagle dog at 1 mg/kg, po by LC-MS/MS analysis; format: ADME, organism-based, Canis lupus familiaris; conditions: in vivo
[24] = AUC (0 to infinity) in Beagle dog at 1 mg/kg, po by LC-MS/MS analysis; format: ADME, organism-based, Canis lupus familiaris; design: dose 1 mg/kg, route oral, time infinity; conditions: in vivo
[25] = Half life in Beagle dog at 1 mg/kg, iv by LC-MS/MS analysis; format: ADME, organism-based, Canis lupus familiaris; conditions: in vivo
[26] = Oral availability in Han Wistar rat at 5 mg/kg by LC-MS/MS analysis; format: ADME, organism-based; conditions: in vivo
[27] = Volume of distribution at steady state in CD1 mouse at 1 mg/kg, iv by LC-MS/MS analysis; format: ADME, organism-based; conditions: in vivo, read-out: Vdss
[28] = Half life in Han Wistar rat at 5 mg/kg, po by LC-MS/MS analysis; format: ADME, organism-based; conditions: in vivo
[29] = Clearance in CD1 mouse at 1 mg/kg, iv by LC-MS/MS analysis; format: ADME, organism-based; conditions: in vivo
[30] = AUC (0 to infinity) in CD1 mouse at 1 mg/kg, iv by LC-MS/MS analysis; format: ADME, organism-based; design: dose 1 mg/kg, time infinity, route intravenous; conditions: in vivo
[31] = Half life in Beagle dog at 1 mg/kg, po by LC-MS/MS analysis; format: ADME, organism-based, Canis lupus familiaris; conditions: in vivo
[32] = AUC (0 to t) in CD1 mouse at 1 mg/kg, iv by LC-MS/MS analysis; format: ADME, organism-based; conditions: in vivo
[33] = Volume of distribution at steady state in Beagle dog at 1 mg/kg, iv by LC-MS/MS analysis; format: ADME, organism-based, Canis lupus familiaris; conditions: in vivo, read-out: Vdss

Tmax [1]: 2 h | Cmax [2]: 506 ng/mL | Tmax [3]: 4 h | AUC(0-t) [4]: 3140 ng·h/mL | AUC(0-inf) [5]: 3180 ng·h/mL | AUC(0-inf) [6]: 216 ng·h/mL | half-life [7]: 1.7 h | AUC(0-t) [8]: 498 ng·h/mL | Cmax [9]: 32 ng/mL | Cmax [10]: 99 ng/mL | half-life [11]: 1.5 h | Vd [12]: 1.3 L/kg | AUC(0-t) [13]: 2490 ng·h/mL | bioavailability [14]: 20% | clearance [15]: 33.8 mL/min/kg | AUC(0-inf) [16]: 501 ng·h/mL | AUC(0-inf) [17]: 2550 ng·h/mL | clearance [18]: 5.3 mL/min/kg | Tmax [19]: 2 h | bioavailability [20]: 46% | AUC(0-t) [21]: 178 ng·h/mL | half-life [22]: 1.7 h | AUC(0-t) [23]: 593 ng·h/mL | AUC(0-inf) [24]: 633 ng·h/mL | half-life [25]: 5.2 h | bioavailability [26]: 9% | Vd [27]: 1.3 L/kg | half-life [28]: 4.8 h | clearance [29]: 15.4 mL/min/kg | AUC(0-inf) [30]: 1100 ng·h/mL | half-life [31]: 6 h | AUC(0-t) [32]: 1070 ng·h/mL | Vd [33]: 1 L/kg
SMILES: COC(=O)N[C@H](C(=O)N1[C@H](c2ncc(-c3ccc4c(c3)-c3ccc(-c5cnc([C@@H]6C[C@@H]7CCC[C@@H]7N6C(=O)[C@@H](NC(=O)OC)[C@@H](C)OC)[nH]5)cc3-4)[nH]2)C[C@@H]2CCC[C@@H]21)[C@@H](C)OC

Tmax [1]: 1.5 h | AUC(0-inf) [6]: 1260 ng·h/mL | Cmax [9]: 258 ng/mL | AUC(0-t) [21]: 1250 ng·h/mL | bioavailability [26]: 41% | half-life [28]: 1.7 h
SMILES: COC(=O)N[C@H](C(=O)N1[C@H](c2ncc(-c3ccc4c(c3)-c3ccc(-c5cnc([C@@H]6C[C@@H]7CCC[C@@H]7N6C(=O)[C@@H](NC(=O)OC)[C@@H](C)OC)[nH]5)cc3-4)[nH]2)C[C@@H]2CCC[C@@H]21)[C@@H](C)OC.Cl
